Paper PMC9821961, “Ring-Modified Histidine-Containing Cationic Short Peptides Exhibit Anticryptococcal Activity by Cellular Disruption” (Molecules, 2022)
In brackets after ≈: the same amount, converted by molar mass.

Assays:
C. parapsilosis = test: microbe, parasite or virus in culture; assay type: cell-based, Candida parapsilosis; conditions: 48 h
Description: (§1) Microbial strains: Microbial strains were procured from National Culture Collection of Pathogenic Fungi (NCCPF) at the Postgraduate Institute of Medical Education & Research (PGIMER), Chandigarh and Microbial Type Culture Collection and Gene bank (MTCC) at the Institute of Microbial Technology (IMTECH), Chandigarh, India. Peptides were screened against five different strains of fungi: viz. Candida albicans (NCCPF400034), Candida glabrata (MTCC 3019), Candida parapsilosis (NCCPF 440002), Candida krusei (NCCPF 440002) and Cryptococcus neoformans (NCCPF250316), and five strains of bacteria: viz. Escherichia coli (MTCC 2961), Staphylococcus aureus (MTCC 3160), Enterococcus faecalis (MTCC 439), Streptococcus pyogenes (MTCC 442) and Pseudomonas aeruginosa (MTCC 3542).
(§2) Growth media: Antifungal susceptibility testing was carried out using standard broth microdilution assays as per the Clinical and Laboratory Standards Institute (CLSI) guidelines for fungi. RPMI 1640 (Sigma), yeast extract, peptone and dextrose (YPED, Himedia) were used as the incubation broths. The cells were diluted to a cell density of 10^3 colony forming unit (CFU/mL) and incubated at 30 °C for 48 h. Furthermore, Muller Hinton (Himedia) media was utilized for bacterial strains and antibacterial activity was evaluated per CLSI guidelines for bacteria. Bacterial cells were diluted to a cell density of 10^5 CFU/mL and incubated at 37 °C for 24 h. Amphotericin B (Himedia, India) and rifampicin (Himedia, India) were used as standard drugs for the evaluation of activity against all the fungal and bacterial strains, respectively.
(§3) The stock solutions of peptides (2 mg/mL) were prepared in DMSO. Specific amounts of peptide from stock solution were added to a 96-well microtiter plate containing 100 μL of growth media and then serially diluted two-fold. A further 100 μL of growth media containing microbial cells were added to each well and incubated at 30–37 °C for 24–48 h. The optical density (OD) was measured at 600 nm using a BioStack Ready (BioTek Instruments, Winooski, VT, USA) microplate reader to analyze microbial growth inhibition, and IC50 and MIC values were calculated. To visualize the growth and inhibition pattern, a solution of 3-(4,5-dimethylthiazol-2-yl)-2,5-diphenyltetrazolium bromide (MTT) in water was added to the plate and incubated for 2–3 h. MTT reacts with the mitochondrial dehydrogenases, which are present only in a viable cell, to give blue colored formazan crystals. Therefore, a darker color indicates a high number of viable cells; however, non-viable cells appear pale or colorless.

C. neoformans = test: microbe, parasite or virus in culture; assay type: cell-based, Cryptococcus neoformans
Description: as §1, §2, §3

C. albicans = test: microbe, parasite or virus in culture; assay type: cell-based, Candida albicans; conditions: 48 h
Description: as §1, §2, §3

C. glabrata = test: microbe, parasite or virus in culture; assay type: cell-based, Candida glabrata; conditions: 48 h
Description: as §1, §2, §3

C. krusei = test: microbe, parasite or virus in culture; assay type: cell-based, Candida krusei; conditions: 48 h
Description: as §1, §2, §3

C. neoformans cells = test: Time kill assay; conditions: negative-control peptides, compared with untreated cells, 24 h
E. coli = test: microbe, parasite or virus in culture; assay type: cell-based, Escherichia coli; conditions: 48 h
Description: as §1
as §2, with “Bacterial cells were diluted to a cell density of 10^5 CFU/mL and incubated at 37 °C for 24 h.” left out
as §3

S. pyogens = test: microbe, parasite or virus in culture; assay type: cell-based, Streptococcus pyogenes; conditions: 48 h
E. faecalis = test: microbe, parasite or virus in culture; assay type: cell-based, Enterococcus faecalis; conditions: 48 h
P. aeruginosa = test: microbe, parasite or virus in culture; assay type: cell-based, Pseudomonas aeruginosa; conditions: 48 h
S. aureus = test: microbe, parasite or virus in culture; assay type: cell-based, Staphylococcus aureus; conditions: 48 h
Description: as §1
as §2, with “Bacterial cells were diluted to a cell density of 10^5 CFU/mL and incubated at 37 °C for 24 h.” left out
as §3

Row | Structure (SMILES) | IC50 (C. parapsilosis) [µg/mL] | MIC (C. parapsilosis) [µg/mL] | IC50 (C. neoformans; 48 h) [µg/mL] | MIC (C. neoformans; 48 h) [µg/mL] | IC50 (C. albicans) [µg/mL] | MIC (C. albicans) [µg/mL] | IC50 (C. glabrata) [µg/mL] | MIC (C. glabrata) [µg/mL] | IC50 (C. krusei) [µg/mL] | MIC (C. krusei) [µg/mL] | IC50 (E. coli) [µg/mL] | MIC (E. coli) [µg/mL] | IC50 (S. pyogens) [µg/mL] | MIC (S. pyogens) [µg/mL] | IC50 (E. faecalis) [µg/mL] | MIC (E. faecalis) [µg/mL] | IC50 (P. aeruginosa) [µg/mL] | MIC (P. aeruginosa) [µg/mL] | IC50 (S. aureus) [µg/mL] | MIC (S. aureus) [µg/mL] | also measured
1 | COC(=O)[C@H](Cc1ncn(Cc2cc(C(C)(C)C)cc(C(C)(C)C)c2)c1I)NC(=O)[C@H](Cc1c[nH]c2ccccc12)NC(=O)OC(C)(C)C [9d] | >35.2 | >64.0 | >35.2 | >64.0 | >35.2 | >64.0 | >35.2 | >64.0 | >35.2 | >64.0 | – | – | – | – | – | – | – | – | – | – | Growth inhibition in time-kill profile (C. neoformans cells): did not show any growth inhibition
2 | COC(=O)[C@H](Cc1ncn(Cc2ccc(C(C)(C)C)cc2)c1I)NC(=O)[C@@H](N)Cc1c[nH]c2ccccc12 [10b] | >35.2 | >64.0 | 5.15 (≈ 8.21 µM) | – | >35.2 | >64.0 | >35.2 | >64.0 | >35.2 | >64.0 | 35.2 (≈ 56.1 µM) | 64.0 (≈ 102 µM) | >35.2 | >64.0 | >35.2 | >64.0 | >35.2 | >64.0 | 35.2 (≈ 56.1 µM) | 64.0 (≈ 102 µM) | –
3 | COC(=O)[C@H](Cc1ncn(Cc2ccc(C(C)C)cc2)c1I)NC(=O)[C@@H](N)Cc1c[nH]c2ccccc12 [10c] | >35.2 | >64.0 | 8.81 (≈ 14.4 µM) | 16.02 (≈ 26.1 µM) | >35.2 | >64.0 | >35.2 | >64.0 | >35.2 | >64.0 | >35.2 | >64.0 | >35.2 | >64.0 | >35.2 | >64.0 | >35.2 | >64.0 | >35.2 | >64.0 | –
4 | COC(=O)[C@H](Cc1ncn(Cc2cccc(C(F)(F)F)c2)c1I)NC(=O)[C@@H](N)Cc1c[nH]c2ccccc12 [10e] | >35.2 | >64.0 | 4.87 (≈ 7.62 µM) | 8.86 (≈ 13.9 µM) | >35.2 | >64.0 | >35.2 | >64.0 | >35.2 | >64.0 | >35.2 | >64.0 | >35.2 | >64.0 | >35.2 | >64.0 | >35.2 | >64.0 | >35.2 | >64.0 | –
5 | COC(=O)[C@H](Cc1ncn(Cc2ccc(F)c(F)c2)c1I)NC(=O)[C@@H](N)Cc1c[nH]c2ccccc12 [10i] | >35.2 | >64.0 | 10.28 (≈ 16.9 µM) | – | >35.2 | >64.0 | >35.2 | >64.0 | >35.2 | >64.0 | – | – | – | – | – | – | – | – | – | – | MIC (C. neoformans; C. neoformans, lowest test concentration with no detectable growth): 18.7 µg/mL (≈ 30.8 µM)
